Reference: patent US8575163B2, “Pyrrolopyridinylpyrimidin-2-ylamine derivatives” (Merck Patent GmbH, priority 2009, dated 2013)

target: T1, PDK1 (Homo sapiens, UniProt O15530); experiment: Test for the inhibition of PDK1 (flashplate, 33P-ATP); type: biochemical; settings: His6-PDK1 3.4 nM, 4 μM ATP, 30° C., 60 min
T1 construct: His6 (N)
T1 sequence (O15530 51-556 limits assumed): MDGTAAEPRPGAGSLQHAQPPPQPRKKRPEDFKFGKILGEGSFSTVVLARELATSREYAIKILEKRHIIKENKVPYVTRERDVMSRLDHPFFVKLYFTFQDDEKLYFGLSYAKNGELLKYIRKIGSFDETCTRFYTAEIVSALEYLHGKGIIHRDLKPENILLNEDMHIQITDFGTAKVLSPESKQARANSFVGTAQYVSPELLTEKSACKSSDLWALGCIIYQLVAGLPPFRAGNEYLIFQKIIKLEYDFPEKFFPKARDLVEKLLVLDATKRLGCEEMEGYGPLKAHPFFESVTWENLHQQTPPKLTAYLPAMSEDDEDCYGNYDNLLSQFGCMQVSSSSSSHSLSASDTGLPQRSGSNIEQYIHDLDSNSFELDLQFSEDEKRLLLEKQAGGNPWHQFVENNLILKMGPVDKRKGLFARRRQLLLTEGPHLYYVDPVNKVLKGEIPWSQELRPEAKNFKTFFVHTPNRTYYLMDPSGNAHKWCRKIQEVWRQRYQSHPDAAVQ
Method: The experimental batches are carried out in a flashplate system with 384 wells/microtitration plate.
In each case, the PDK1 sample His6-PDK1(1-50)(3.4 nM), the PDK1 substrate biotin-bA-bA-[…] (400 nM), 4 μM ATP (with 0.2 μCi of ^33 P-ATP/well) and the test substance in 50 μl of conventional experimental solution per well are incubated at 30° C. for 60 min. The test substances are employed in corresponding concentrations (if desired in a dilution series). The control is carried out without test substance. The reaction is stopped using standard methods and washed. The activity of the kinase is measured via the incorporated radioactivity in top count. In order to determine the non-specific kinase reaction (blank value), the experimental batches are carried out in the presence of 100 nM staurosporin.
The radioactivity (decompositions per minute) of the blank value (no use of test substance in the presence of staurosporin) is subtracted from all other radioactivity values. The controls (kinase activity without test substance) are set equal to 100 percent and all other radioactivity values (after subtracting the blank value) are expressed set in relation thereto (for example in % of the control).
[formula] IC50 values (50% inhibition) are determined with the aid of statistics programmes, such as, for example, RS1.

Going from `Cn1cc(-c2cnc3[nH]cc(-c4cc(C(C)(O)c5cccnc5)nc(N)n4)c3c2)cn1` (stereo not drawn) [A24, 1-{2-amino-6-[5-(1-methyl-1H-pyrazol-4-yl)-1H-pyrrolo[2,3-b]pyridin-3-yl]-pyrimidin-4-yl}-1-pyridin-3-ylethanol] to `Cn1cc(-c2cnc3[nH]cc(-c4cc(C(C)(O)c5ccc(=O)[nH]c5)nc(N)n4)c3c2)cn1` (stereo not drawn) [A111, 5-(1-{2-amino-6-[5-(1-methyl-1H-pyrazol-4-yl)-1H-pyrrolo[2,3-b]pyridin-3-yl]-pyrimidin-4-yl}-1-hydroxyethyl)-1H-pyridin-2-one], the IC50 falls from 56 nM to 26 nM (2.2-fold).

Compared with `CNC(=O)CCn1cc(-c2cnc3[nH]cc(-c4cc(C(C)(OCOC)c5ccccc5)nc(N)n4)c3c2)cn1` (stereo not drawn) [A75, 3-(4-{3-[2-amino-6-(1-methoxymethoxy-1-phenylethyl)pyrimidin-4-yl]-1H-pyrrolo[2,3-b]pyridin-5-yl}pyrazol-1-yl)-N-methylpropionamide], `COC(C)(c1ccccc1)c1cc(-c2c[nH]c3ncc(-c4cnn(CCO)c4)cc23)nc(N)n1` (stereo not drawn) [A27, 2-(4-{3-[2-amino-6-(1-methoxy-1-phenylethyl)pyrimidin-4-yl]-1H-pyrrolo-[2,3-b]pyridin-5-yl}pyrazol-1-yl)ethanol] is 2.5-fold lower in IC50: 79 nM for the first, 32 nM for the second. The second is the more potent here.

First: COCOC(C)(c1ccccc1)c1cc(-c2c[nH]c3ncc(Br)cc23)nc(N)n1 (stereo not drawn) [A15, 4-(5-bromo-1H-pyrrolo[2,3-b]pyridin-3-yl)-6-(1-methoxymethoxy-1-phenylethyl)pyrimidin-2-ylamine]
Second: COCO[C@](C)(c1cccc(F)c1)c1cc(-c2c[nH]c3ncc(Br)cc23)nc(N)n1 [A73, 4-(5-bromo-1H-pyrrolo[2,3-b]pyridin-3-yl)-6-[(R)-1-(3-fluorophenyl)-1-methoxymethoxyethyl]pyrimidin-2-ylamine]
The IC50 of the first is lower: 500 nM for the first, greater than 30000 nM for the second.

First: COCOC(C)(c1cccc(C)c1)c1cc(-c2c[nH]c3ncc(-c4cnn(C)c4)cc23)nc(N)n1 (stereo not drawn) [A23, 4-(1-methoxymethoxy-1-m-tolylethyl)-6-[5-(1-methyl-1H-pyrazol-4-yl)-1H-pyrrolo[2,3-b]pyridin-3-yl]pyrimidin-2-ylamine]
Second: COCOC(C)(c1cccc(C)c1)c1cc(-c2c[nH]c3ncc(-c4cnn(CCO)c4)cc23)nc(N)n1 (stereo not drawn) [A22, 2-(4-{3-[2-amino-6-(1-methoxymethoxy-1-m-tolylethyl)pyrimidin-4-yl]-1H-pyrrolo[2,3-b]pyridin-5-yl}pyrazol-1-yl)ethanol]
The IC50 of the first is 2.2-fold higher: 130 nM for the first, 59 nM for the second. The second is the more potent here.

`CC(O)(c1ccccc1)c1cc(-c2c[nH]c3ncc(-c4cnn(C(CF)CF)c4)cc23)nc(N)n1` (stereo not drawn) [A80, 1-(2-amino-6-{5-[1-(2-fluoro-1-fluoromethylethyl)-1H-pyrazol-4-yl]-1H-pyrrolo[2,3-b]pyridin-3-yl}pyrimidin-4-yl)-1-phenylethanol] and `CC(O)(c1ccccc1)c1cc(-c2c[nH]c3ncc(-c4cnn(CCF)c4)cc23)nc(N)n1` (stereo not drawn) [A81, 1-(2-amino-6-{5-[1-(2-fluoroethyl)-1H-pyrazol-4-yl]-1H-pyrrolo[2,3-b]pyridin-3-yl}pyrimidin-4-yl)-1-phenylethanol] are within 1.5-fold of each other in IC50: 17 nM for the first, 19 nM for the second.

First: CC(O)(c1ccccc1)c1cc(-c2c[nH]c3ncc(-c4cnn(CC(F)F)c4)cc23)nc(N)n1 (stereo not drawn) [A84, 1-(2-amino-6-{5-[1-(2,2-difluoroethyl)-1H-pyrazol-4-yl]-1H-pyrrolo[2,3-b]-pyridin-3-yl}pyrimidin-4-yl)-1-phenylethanol]
Second: CC(O)(c1ccccc1)c1cc(-c2c[nH]c3ncc(-c4cnn(CCC(N)=O)c4)cc23)nc(N)n1 (stereo not drawn) [A71, 3-(4-{3-[2-amino-6-(1-hydroxy-1-phenylethyl)pyrimidin-4-yl]-1H-pyrrolo-[2,3-b]pyridin-5-yl}pyrazol-1-yl)propionamide]
The IC50 of the first is 3.3-fold higher: 50 nM for the first, 15 nM for the second.

Compared with `COCOC(C)(c1cc(-c2c[nH]c3ncc(-c4cnn(C)c4)cc23)nc(N)n1)c1cccc(Cl)c1F` (stereo not drawn) [A29, 4-[1-(3-chloro-2-fluorophenyl)-1-methoxymethoxyethyl]-6-[5-(1-methyl-1H-pyrazol-4-yl)-1H-pyrrolo[2,3-b]pyridin-3-yl]pyrimidin-2-ylamine], `CCC(OCOC)(c1cc(-c2c[nH]c3ncc(-c4cnn(C)c4)cc23)nc(N)n1)c1cccc(Cl)c1F` (stereo not drawn) [A30, 4-[1-(3-chloro-2-fluorophenyl)-1-methoxymethoxypropyl]-6-[5-(1-methyl-1H-pyrazol-4-yl)-1H-pyrrolo[2,3-b]pyridin-3-yl]pyrimidin-2-ylamine] is 3.2-fold higher in IC50: 40 nM for the first, 130 nM for the second. The first is the more potent here.

Going from `CC(O)(c1ccncc1)c1cc(-c2c[nH]c3ncc(-c4cnn(CC(=O)N5CCCCC5)c4)cc23)nc(N)n1` (stereo not drawn) [A61, 2-(4-{3-[2-amino-6-(1-hydroxy-1-pyridin-4-ylethyl)pyrimidin-4-yl]-1H-pyrrolo-[2,3-b]pyridin-5-yl}pyrazol-1-yl)-1-piperidin-1-ylethanone] to `CC(C(=O)N1CCCC1)n1cc(-c2cnc3[nH]cc(-c4cc(C(C)(O)c5ccccc5)nc(N)n4)c3c2)cn1` (stereo not drawn) [A14, 2-(4-{3-[2-amino-6-(1-hydroxy-1-phenylethyl)pyrimidin-4-yl]-1H-pyrrolo-[2,3-b]pyridin-5-yl}pyrazol-1-yl)-1-pyrrolidin-1-ylpropan-1-one], the IC50 rises from 2.1 nM to 39 nM (19-fold). The first is the more potent here.

Compared with `C=C(CF)n1cc(-c2cnc3[nH]cc(-c4cc(C(C)(O)c5ccccc5)nc(N)n4)c3c2)cn1` (stereo not drawn) [A79, 1-(2-amino-6-{5-[1-(1-fluoromethylvinyl)-1H-pyrazol-4-yl]-1H-pyrrolo[2,3-b]-pyridin-3-yl}pyrimidin-4-yl)-1-phenylethanol], `CC(O)(c1ccccc1)c1cc(-c2c[nH]c3ncc(-c4cnn(CCC(=O)NCCN)c4)cc23)nc(N)n1` (stereo not drawn) [A60, N-(2-aminoethyl)-3-(4-{3-[2-amino-6-(1-hydroxy-1-phenylethyl)pyrimidin-4-yl]-1H-pyrrolo[2,3-b]pyridin-5-yl}pyrazol-1-yl)propionamide] is 2.8-fold lower in IC50: 68 nM for the first, 24 nM for the second.

Going from `CC(O)(c1ccccc1)c1cc(-c2c[nH]c3ncc(-c4cnn(CCC(=O)N5CCOCC5)c4)cc23)nc(N)n1` (stereo not drawn) [A68, 3-(4-{3-[2-amino-6-(1-hydroxy-1-phenylethyl)pyrimidin-4-yl]-1H-pyrrolo-[2,3-b]pyridin-5-yl}pyrazol-1-yl)-1-morpholin-4-ylpropan-1-one] to `CC(O)(c1ccccc1)c1cc(-c2c[nH]c3ncc(-c4cnn(CCC(=O)N5CCC(O)C5)c4)cc23)nc(N)n1` (stereo not drawn) [A65, 3-(4-{3-[2-amino-6-(1-hydroxy-1-phenylethyl)pyrimidin-4-yl]-1H-pyrrolo-[2,3-b]pyridin-5-yl}pyrazol-1-yl)-1-(3-hydroxypyrrolidin-1-yl)propan-1-one], the IC50 falls from 74 nM to 25 nM (3-fold).

Compared with `CCCC(C)(O)c1cc(-c2c[nH]c3ncc(-c4cnn(C(C)C)c4)cc23)nc(N)n1` (stereo not drawn) [A87, 2-{2-amino-6-[5-(1-isopropyl-1H-pyrazol-4-yl)-1H-pyrrolo[2,3-b]pyridin-3-yl]-pyrimidin-4-yl}pentan-2-ol], `Cc1cccc(C(C)(O)c2cc(-c3c[nH]c4ncc(-c5cnn(CCO)c5)cc34)nc(N)n2)c1` (stereo not drawn) [A94, 1-(2-amino-6-{5-[1-(2-hydroxyethyl)-1H-pyrazol-4-yl]-1H-pyrrolo[2,3-b]-pyridin-3-yl}pyrimidin-4-yl)-1-m-tolylethanol] is 3.8-fold higher in IC50: 16 nM for the first, 60 nM for the second.

Compared with `CC(O)(c1ccncc1)c1cc(-c2c[nH]c3ncc(-c4cn[nH]c4)cc23)nc(N)n1` (stereo not drawn) [A62, 1-{2-amino-6-[5-(1H-pyrazol-4-yl)-1H-pyrrolo[2,3-b]pyridin-3-yl]pyrimidin-4-yl}-1-pyridin-4-ylethanol], `Cn1cc(-c2cnc3[nH]cc(-c4cc(C(C)(O)c5ccccc5F)nc(N)n4)c3c2)cn1` (racemic) [A102, 1-{2-amino-6-[5-(1-methyl-1H-pyrazol-4-yl)-1H-pyrrolo[2,3-b]pyridin-3-yl]-pyrimidin-4-yl}-1-(2-fluorophenyl)ethanol] is 3.6-fold higher in IC50: 2.8 nM for the first, 10 nM for the second.

First: CC[C@](OCOC)(c1cccc(F)c1)c1cc(-c2c[nH]c3ncc(Br)cc23)nc(N)n1 [A52, 4-(5-bromo-1H-pyrrolo[2,3-b]pyridin-3-yl)-6-[(S)-1-(3-fluorophenyl)-1-methoxymethoxypropyl]pyrimidin-2-ylamine]
Second: COCOC(C)(c1cc(-c2c[nH]c3ncc(Br)cc23)nc(N)n1)c1ccccc1C (stereo not drawn) [A19, 4-(5-bromo-1H-pyrrolo[2,3-b]pyridin-3-yl)-6-(1-methoxymethoxy-1-o-tolylethyl)pyrimidin-2-ylamine]
The IC50 of the first is higher: greater than 30000 nM for the first, 1500 nM for the second. The second is the more potent here.

`CNc1nc(-c2c[nH]c3ncc(-c4cnn(CCO)c4)cc23)cc(C(C)(O)c2ccccc2)n1` (stereo not drawn) [A95, 1-(6-{5-[1-(2-hydroxyethyl)-1H-pyrazol-4-yl]-1H-pyrrolo[2,3-b]pyridin-3-yl}-2-methylaminopyrimidin-4-yl)-1-phenylethanol] gave an IC50 of 18 nM.
